Results from patent US20240116946A1 (Gilead Sciences, Inc., priority 2022, published 2024).
Where two headings read alike, the source gives them in different places.

Assays:
[1] = target: recombinant SARS-CoV-2 Main protease (Mpro) (Severe acute respiratory syndrome coronavirus 2 (2019-nCoV) (SARS-CoV-2), UniProt P0DTD1); assay: Cov Mpro Biochemical IC50 Assay; settings: fluorogenic peptide substrate
[2] = test system: SARS-CoV-2-NLuc; assay: microbe, parasite or virus in culture; format: cell-based, SARS Coronavirus 2
[3] = recombinant SARS-CoV-2 Mpro, read-out: MPro IC50
[4] = Severe acute respiratory syndrome coronavirus, 48 h, read-out: MPro EC50
[5] = Severe acute respiratory syndrome coronavirus, 48 h; read-out: MPro EC50
[6] = MPro IC50, recombinant SARS-CoV-2 Mpro

| SMILES | IC50 [1, 3] | EC50 [2, 4] | EC50 [2, 5] | IC50 [1, 6] |
| --- | --- | --- | --- | --- |
| CNC(=O)c1cccc(-c2cccc(Cl)c2-c2ccc3c(=O)n(-c4cncc5ccccc45)c(=O)[nH]c3c2)c1 [Example 189] | 8.58 nM | 18.2 nM | – | – |
| CC1(C)Cc2c(-c3cccc(Cl)c3-c3ccc4c(=O)n(-c5cncc6ccccc56)c(=O)[nH]c4c3)cnn2C1 [Example 190] | 19.7 nM | 16.4 nM | – | – |
| COc1ccc(Cl)c(-c2ccc3c(=O)n(-c4cncc(C5CC5)c4)c(=O)[nH]c3c2)c1 [Example 191] | 73.8 nM | 91 nM | – | – |
| Cc1ccc(-c2ccc3c(=O)n(-c4cncc5ccccc45)c(=O)[nH]c3c2)c(Cl)c1 [Example 192] | > 50000 nM | 3890 nM | – | – |
| O=C1NCc2c1cccc2-c1cccc(Cl)c1-c1ccc2c(=O)n(-c3cncc4ccccc34)c(=O)[nH]c2c1 [Example 193] | 7.69 nM | 65.6 nM | – | – |
| O=C1NCCc2c1cccc2-c1cccc(Cl)c1-c1ccc2c(=O)n(-c3cncc4ccccc34)c(=O)[nH]c2c1 [Example 194] | < 2.54 nM | 20.6 nM | – | – |
| CN1C(=O)COc2cc(-c3cccc(Cl)c3-c3ccc4c(=O)n(-c5cncc6ccccc56)c(=O)[nH]c4c3)cnc21 [Example 195] | 8.82 nM | 9.06 nM | – | – |
| CN1C(=O)COc2ccc(-c3cccc(Cl)c3-c3ccc4c(=O)n(-c5cncc6ccccc56)c(=O)[nH]c4c3)cc21 [Example 196] | 17.4 nM | 15.6 nM | – | – |
| CN1C(=O)COc2cc(-c3cccc(Cl)c3-c3ccc4c(=O)n(-c5cncc6ccccc56)c(=O)[nH]c4c3)ccc21 [Example 197] | 13.9 nM | 8.58 nM | – | – |
| Cc1cncc(-c2cccc(Cl)c2-c2ccc3c(=O)n(-c4cncc5ccccc45)c(=O)[nH]c3c2)c1 [Example 198] | 8.77 nM | 8.47 nM | – | – |
| COc1cncc(-c2cccc(Cl)c2-c2ccc3c(=O)n(-c4cncc5ccccc45)c(=O)[nH]c3c2)c1 [Example 199] | 19.3 nM | 25.4 nM | – | – |
| CCCn1cc(-c2cccc(Cl)c2-c2ccc3c(=O)n(-c4cncc5ccccc45)c(=O)[nH]c3c2)c(C(F)(F)F)n1 [Example 200] | 112 nM | 36 nM | – | – |
| CC(C)Cn1cc(-c2cccc(Cl)c2-c2ccc3c(=O)n(-c4cncc5ccccc45)c(=O)[nH]c3c2)c(C(F)(F)F)n1 [Example 201] | 110 nM | 59 nM | – | – |
| COc1cc(-c2cc3[nH]c(=O)n(-c4cncc5ccccc45)c(=O)c3cc2F)c(C#N)cc1F [Example 202, 5-fluoro-2-[6-fluoro-3-(4-isoquinolyl)-2,4-dioxo-1H-quinazolin-7-yl]-4-methoxy-benzonitrile] | 13.6 nM | 18.4 nM | – | – |
| CS(=O)(=O)c1cncc(-c2cccc(Cl)c2-c2ccc3c(=O)n(-c4cncc5ccccc45)c(=O)[nH]c3c2)c1 [Example 203] | 11.1 nM | 26.9 nM | – | – |
| CS(=O)(=O)c1ccc(-c2cccc(Cl)c2-c2ccc3c(=O)n(-c4cncc5ccccc45)c(=O)[nH]c3c2)cn1 [Example 204] | 11.7 nM | 49 nM | – | – |
| Cc1c(C#N)cncc1-c1cccc(Cl)c1-c1ccc2c(=O)n(-c3cncc4ccccc34)c(=O)[nH]c2c1 [Example 205] | 44 nM | 41.2 nM | – | – |
| O=c1[nH]c2cc(-c3c(Cl)cccc3-c3cncc(C(F)(F)F)c3)ccc2c(=O)n1-c1cncc2ccccc12 [Example 206] | 42.4 nM | 20.6 nM | – | – |
| O=c1[nH]c2cc(-c3c(Cl)cccc3-c3cncc(F)c3)ccc2c(=O)n1-c1cncc2ccccc12 [Example 207] | 17.6 nM | 13.6 nM | – | – |

| SMILES | IC50 [1, 3] | EC50 [2, 4] | EC50 [2, 5] | IC50 [1, 6] |
| --- | --- | --- | --- | --- |
| Cc1cc(-c2cccc(Cl)c2-c2ccc3c(=O)n(-c4cncc5ccccc45)c(=O)[nH]c3c2)cc(C)n1 [Example 208] | 7.56 nM | 4.21 nM | – | – |
| CC(C)(O)c1cncc(-c2cccc(Cl)c2-c2ccc3c(=O)n(-c4cncc5ccccc45)c(=O)[nH]c3c2)c1 [Example 209] | 10.4 nM | 23.6 nM | – | – |
| COc1ccc(OC)c(-c2ccc3c(=O)n(-c4cncc5ccccc45)c(=O)[nH]c3c2)c1 [Example 210] | 2830 nM | 2980 nM | – | – |
| COc1ccc(Cl)c(-c2cc3[nH]c(=O)n(-c4cncc5ccccc45)c(=O)c3cc2F)c1 [Example 211] | 55.5 nM | – | 70.4 nM | – |
| COc1cc(F)c(Cl)c(-c2ccc3c(=O)n(-c4cncc5ccccc45)c(=O)[nH]c3c2)c1 [Example 212] | 831 nM | 752 nM | – | – |
| COc1c(C)cncc1-n1c(=O)[nH]c2cc(-c3ccccc3Cl)sc2c1=O [Example 213] | 16.4 nM | – | 31.1 nM | – |
| COCCOc1c(C)cncc1-n1c(=O)[nH]c2cc(-c3ccccc3Cl)sc2c1=O [Example 214] | 11.1 nM | – | 20.1 nM | – |
| COCCOCCOc1c(C)cncc1-n1c(=O)[nH]c2cc(-c3ccccc3Cl)sc2c1=O [Example 215] | 10.7 nM | 94.1 nM | – | – |
| Cc1ccncc1-n1c(=O)[nH]c2cc(-c3ccccc3Cl)sc2c1=O [Example 216] | 62.3 nM | 112 nM | – | – |
| CCc1cncc(-n2c(=O)[nH]c3cc(-c4ccccc4Cl)sc3c2=O)c1 [Example 217] | 66.6 nM | 96.2 nM | – | – |
| COc1ccc(C#N)c(-c2ccc3c(=O)n(-c4cncc5cccnc45)c(=O)[nH]c3c2)c1 [Example 218] | 20.9 nM | – | 82.8 nM | – |
| COc1ccc(Cl)c(-c2cnc3c(=O)n(-c4cncc5ccccc45)c(=O)[nH]c3c2)c1 [Example 219] | 5.06 nM | – | 181 nM | – |
| COC(=O)Cn1c(=O)n(-c2cncc3ccccc23)c(=O)c2sc(-c3ccccc3Cl)cc21 [Example 220] | 29.1 nM | 86.6 nM | – | – |
| COc1ccc(Cl)c(-c2cc(F)c3c(=O)n(-c4cncc5ccccc45)c(=O)[nH]c3c2)c1 [Example 221] | 65.8 nM | – | 50.6 nM | – |
| O=c1[nH]c2cc(-c3ccccc3Cl)cc(F)c2c(=O)n1-c1cncc2ccccc12 [Example 222] | 153 nM | 151 nM | – | – |
| N#Cc1ccccc1-c1cc(F)c2c(=O)n(-c3cncc4ccccc34)c(=O)[nH]c2c1 [Example 223] | 101 nM | – | 414 nM | – |
| COc1ccc(C#N)c(-c2cc3[nH]c(=O)n(-c4cncc5ccc(C(F)F)cc45)c(=O)c3s2)c1 [Example 224] | 10.2 nM | 124 nM | – | – |
| COc1ccc(C#N)c(-c2cc3[nH]c(=O)n(-c4cncc(C)c4OCC(F)(F)F)c(=O)c3s2)c1 [Example 225] | 12.1 nM | 87.7 nM | – | – |
| COc1ccc(Cl)c(-c2cc3[nH]c(=O)n(-c4cncc5ccc(N6CCS(=O)(=O)CC6)cc45)c(=O)c3s2)c1 [Example 226] | 3.74 nM | 23.7 nM | – | – |

| SMILES | IC50 [1, 3] | EC50 [2, 4] | EC50 [2, 5] | IC50 [1, 6] |
| --- | --- | --- | --- | --- |
| COc1ccc(Cl)c(-c2cc3[nH]c(=O)n(-c4cncc5ccc(C(F)F)cc45)c(=O)c3s2)c1 [Example 227] | 11.3 nM | 25 nM | – | – |
| O=c1[nH]c2cc(-c3ccccc3Cl)sc2c(=O)n1-c1cncc2ccc(N3CC(F)(F)OC(F)(F)C3)cc12 [Example 228] | 294 nM | 73.1 nM | – | – |
| COc1ccc(Cl)c(-c2cc3[nH]c(=O)n(-c4cncc5ccc(N6CC(F)(F)OC(F)(F)C6)cc45)c(=O)c3s2)c1 [Example 229] | 22.5 nM | 28.9 nM | – | – |
| COc1ccc(C#N)c(-c2cc3[nH]c(=O)n(-c4cncc5ccc(N6CC(F)(F)OC(F)(F)C6)cc45)c(=O)c3s2)c1 [Example 230] | 23.8 nM | 128 nM | – | – |
| O=c1[nH]c2cc(-c3ccccc3Cl)sc2c(=O)n1-c1cncc2ccc(N3CC4C(C3)C4(F)F)cc12 (stereo not drawn) [Example 231] | 22.1 nM | 37.4 nM | – | – |
| COc1ccc(Cl)c(-c2cc3[nH]c(=O)n(-c4cncc5ccc(N6CC7C(C6)C7(F)F)cc45)c(=O)c3s2)c1 (stereo not drawn) [Example 232] | 17.6 nM | 34.9 nM | – | – |
| Cc1c(-c2cccc(Cl)c2-c2ccc3c(=O)n(-c4cncc5ccccc45)c(=O)[nH]c3c2)cn2ncnc2c1C [Example 233] | 12.3 nM | 26.8 nM | – | – |
| Cc1cc(-c2cccc(Cl)c2-c2ccc3c(=O)n(-c4cncc5ccccc45)c(=O)[nH]c3c2)cnn1 [Example 234] | < 5.67 nM | 21.2 nM | – | – |
| O=c1[nH]c2cc(-c3c(Cl)cccc3CO)sc2c(=O)n1-c1cncc2ccccc12 [Example 235] | 53.5 nM | – | 289 nM | – |
| O=C1NCc2ccc(-c3cccc(Cl)c3-c3ccc4c(=O)n(-c5cncc6ccccc56)c(=O)[nH]c4c3)cc21 [Example 236] | 86.8 nM | 228 nM | – | – |
| COc1ccc2cncc(-n3c(=O)[nH]c4cc(-c5ccccc5Cl)ccc4c3=O)c2c1 [Example 237] | 87 nM | 143 nM | – | – |
| COc1ccc(Cl)c(-c2ccc3c(=O)n(-c4cncc5ccc(OC)cc45)c(=O)[nH]c3c2)c1 [Example 238] | 48 nM | – | 54.5 nM | – |
| O=c1c2ccc(-c3ccccc3Cl)cc2[nH]c(=S)n1-c1cncc2ccccc12 [Example 239] | – | – | 1820 nM | 4840 nM |
| COc1ccc(Cl)c(-c2ccc3c(=O)n(-c4cncc5ccccc45)c(=S)[nH]c3c2)c1 [Example 240] | – | – | 520 nM | 1660 nM |
| O=c1[nH]c2cc(-c3c(Cl)cccc3-c3ccc4ncnn4c3)ccc2c(=O)n1-c1cncc2ccccc12 [Example 241] | 35 nM | 54 nM | – | – |
| NC(=O)c1cccc(-c2cccc(Cl)c2-c2ccc3c(=O)n(-c4cncc5ccccc45)c(=O)[nH]c3c2)c1 [Example 242] | 10.4 nM | 40.1 nM | – | – |
| Cc1c(-c2cccc(Cl)c2-c2ccc3c(=O)n(-c4cncc5ccccc45)c(=O)[nH]c3c2)cnn1C [Example 243] | 11.1 nM | 12.2 nM | – | – |
| Cc1cc(-c2cccc(Cl)c2-c2ccc3c(=O)n(-c4cncc5ccccc45)c(=O)[nH]c3c2)ccc1C(N)=O [Example 244] | 18.1 nM | 41 nM | – | – |
| Cc1cc(-c2cccc(Cl)c2-c2ccc3c(=O)n(-c4cncc5ccccc45)c(=O)[nH]c3c2)cn2nnnc12 [Example 245] | 13.2 nM | 20.4 nM | – | – |
